Patent US8962621B2 (Shanghai Institute of Pharmaceutical Industry, priority 2010, dated 2015)

Columns and labels:
rats = assay: Learned helplessness experiment (conditioned avoidance test); format: in vivo; conditions: for Incubation period of escape / Number of times of successful avoidance: one week, test 24 h after last administration, n = 10
From the text: (1) Principles • This is an animal model of depression. In this experiment, an animal is placed under conditions with aversive stimulus which it can't escape. […] This is a well recognized depression state, in which the level of catecholamine in the animal's brain is reduced. An antidepressant can act against this state. The learned helplessness model is sensitive to a variety of antidepressants used in a sub-long period (3-7 d), including tricyclic antidepressants, monoamine oxidase inhibitors, monoamine reuptake inhibitors and atypical antidepressants.
(2) Test Method • The animals are grouped. The pre-shock animals are generated the first day by performing inescapable electric shock. The pre-shock animals are given foot electric shock (0.8 mA, 15 s) for 60 times (1 min interval). Rats in the control group are only put into the cage for a same period of time but without any electric shock. • The administration of drugs starts the next day and lasts for one week. […] The conditioned avoidance test is conducted 24 h after the last administration to determine the number of times of successful avoidance and the incubation period of escape.

DA reuptake = assay: Oxidation tremor test (oxotremorine-induced tremors); format: in vivo, mice
From the text: (§1) Tests of the 5-hydroxytryptophan (DL-5-HTP) potentiation in mice, Yohimbine toxicity enhancement in mice and oxidation tremors can verify a compound's inhibition effect on 5-HT, NA and DA reuptake. Compound VI-2 is selected for the tests.
a) Principles • The pathogenesis of paralysis agitans is primarily related to the imbalance between DA function and Ach function. […] If the same function can be exerted in vivo, VI-2 will be able to partially antagonize the symptoms induced by an M receptor agonist.
b) Test Method • This test consists of 6 experimental groups: Model control group, VI-2-1 (300 mg/kg) group, VI-2-2 (200 mg/kg) group, VI-2-3 (120 mg/kg) group, VI-2-4 (60 mg/kg) group and VI-2-5 (30 mg/kg) group. For each VI-2 group, the compound at the corresponding dosage is administrated orally, or as in the case of the Model control group, N.S is given to the animals. One hour after the treatment, oxotremorine (0.5 mg/kg, 0.1 mL/10 g) is administrated by intraperitoneal injection to the mice in all groups. Responses of the mice are observed.

5-HT reuptake = assay: 5-Hydroxytryptophan (DL-5-HTP) potentiation in mice (head twitches); format: in vivo; conditions: for Frequency of head twitches 0 (number of mice) / Frequency of head twitches I (number of mice) / Frequency of head twitches II (number of mice) / Frequency of head twitches III (number of mice): Pargyline 75 mg/kg s.c., DL-5-HTP i.v.
From the text: as §1
a) Principles • Taking DL-5-HTP as the precursor of 5-HT, the MAOs inhibitor Pargyline can inhibit the enzymatic degradation […]. While in mice, characteristic symptoms—head twitches can be observed.
b) Test Method • Three different dosages of VI-2 are used: 30, 15 and 7.5 mg/kg. The mouse is treated as follows: first, intraperitoneal injection of the compound, 0.2 mL/10 g; 30 min later, subcutaneous injection of Pargyline, 75 mg/kg; and 90 min later, intraveneous injection of DL-5-HTP. The induced head twitches of the mouse are observed 15 min later.

NA Transporter (hNAT) = NA Transporter (hNAT) (Homo sapiens, UniProt P23975); assay: Inhibition of [3H]-NA reuptake in HEK 293 cells stably expressing hNAT; conditions: HEK293, read-out: NA Reuptake Inhibition
male ICR mice = assay: Mice tail suspension test; format: in vivo
Protocol: Through intragastric administration, 10 mL·kg^−1 of each sample (physiological saline for the blank control group) is administrated. After 1 h of the treatment, the mouse is held with a medical tape at a position around 2 cm from the tip of its tail and hung upside-down in the suspension cage with its head 5 cm away from the bottom of the cage. The observation starts right after the mouse is suspended for 2 min and continues for 4 min. The time during which the mouse is immobile (no struggling or only tiny movements of its body/limbs) in this 4 min is accumulated (IT, immobility time). The percentage of the improvement is calculated according to the equation: Improvement %=[IT (blank control group)−IT (compound treatment group)]/IT (blank control group)×100%

[1] = Venlafaxine 30 mg/kg, VI-2 at 3 doses (20, 10, 5 mg/kg)

NA Transporter (hNAT), sequence (P23975 whole entry): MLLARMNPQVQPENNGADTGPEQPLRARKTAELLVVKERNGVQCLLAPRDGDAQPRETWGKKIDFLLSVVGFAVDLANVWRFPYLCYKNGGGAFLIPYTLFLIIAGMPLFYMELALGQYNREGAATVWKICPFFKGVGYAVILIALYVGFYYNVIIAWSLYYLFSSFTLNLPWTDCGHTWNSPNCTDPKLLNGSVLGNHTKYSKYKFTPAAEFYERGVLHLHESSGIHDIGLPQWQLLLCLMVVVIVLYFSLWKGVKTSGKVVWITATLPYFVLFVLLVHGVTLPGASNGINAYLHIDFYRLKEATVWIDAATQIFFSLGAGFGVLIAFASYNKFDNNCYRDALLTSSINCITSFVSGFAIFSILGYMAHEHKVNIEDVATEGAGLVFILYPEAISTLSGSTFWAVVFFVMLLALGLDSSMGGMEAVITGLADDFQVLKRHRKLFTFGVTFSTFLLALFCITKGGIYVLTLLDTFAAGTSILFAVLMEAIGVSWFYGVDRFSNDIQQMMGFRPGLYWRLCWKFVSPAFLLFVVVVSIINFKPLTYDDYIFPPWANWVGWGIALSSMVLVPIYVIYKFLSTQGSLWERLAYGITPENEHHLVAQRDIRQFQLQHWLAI

Question: With `CN(C)CCC(c1ccc(Cl)c(Cl)c1)N1CCCC1` (stereo not drawn) [VI-2, N,N-dimethyl-3-(3,4-dichlorophenyl)-3-(pyrrolidin-1-yl)-propylamine] as the compound, how does the “Incubation period of escape” value (rats; 5 mg/kg) read?
Answer: The value was 140.3 ± 195.44 s.

Question: What about the “Number of times of successful avoidance” value (rats; 5 mg/kg) of the same compound?
Answer: Its value is 21.2 ± 6.73.

Question: What about the “Incubation period of escape” value (rats; 10 mg/kg) of the same compound?
Answer: Its value is 188.3 ± 178.38 s.

Question: What about the “Number of times of successful avoidance” value (rats; 10 mg/kg) of the same compound?
Answer: Its value is 19.5 ± 8.83.

Question: And the “Incubation period of escape” value (rats; 20 mg/kg)?
Answer: Its value is 171.1 ± 159.69 s.

Question: And the “Number of times of successful avoidance” value (rats; 20 mg/kg)?
Answer: The value was 18.9 ± 9.35.

Question: What about the “incubation period of escape (in words)” value (rats; [1]) of the same compound?
Answer: The value was “significantly shortened incubation period of escape”.

Question: And the “times of successful avoidance (in words)” value (rats; [1])?
Answer: The value was “relatively more times of successful avoidance”.

Question: And the “anti-tremor effect (in words)” value (DA reuptake; 30 mg/kg oral, oxotremorine 0.5 mg/kg i.p. 1 h later)?
Answer: The value was “No anti-tremor effect is observed”.

Question: What about the “Side overturn (in words)” value (DA reuptake; 120 mg/kg or lower) of the same compound?
Answer: Its value is “rarely observed”.

Question: And the “Side overturn (in words)” value (DA reuptake; 300 mg/kg and 200 mg/kg oral)?
Answer: The value was “Side overturn of different extent is observed”.

Question: What about the “Activity of the mice (in words)” value (DA reuptake; 300→200→120→60→30 mg/kg = Model) of the same compound?
Answer: Its value is “The best activity of the mice is observed in the 300 mg/kg group”.

Question: What about the “intensity of tremors versus dose (in words)” value (DA reuptake; Model→30→60→120→200→300 mg/kg from high to low) of the same compound?
Answer: The value was “Clear dose-effect relationship is observed”.

Question: What about the “antagonism of the tremor symptom (in words)” value (DA reuptake; by enhancing the function of DA) of the same compound?
Answer: Its value is “can partially antagonize the tremor symptom”.

Question: What about the “doses giving improvement of tremor (in words)” value (DA reuptake; oral 30-300 mg/kg, oxotremorine 0.5 mg/kg i.p.) of the same compound?
Answer: Its value is “An improvement is only observed at doses up to 120 mg/kg”.

Question: What about the “enhancement of DA function at therapeutic doses (in words)” value (DA reuptake; therapeutic doses (10-20 mg/kg)) of the same compound?
Answer: The value was “no such enhancement”.

Question: And the “Frequency of head twitches 0 (number of mice)” value (5-HT reuptake; 7.5 mg/kg intraperitoneal)?
Answer: The value was 1.

Question: And the “Frequency of head twitches I (number of mice)” value (5-HT reuptake; 7.5 mg/kg intraperitoneal)?
Answer: The value was 3.

Question: And the “Frequency of head twitches II (number of mice)” value (5-HT reuptake; 7.5 mg/kg intraperitoneal)?
Answer: The value was 6.

Question: What about the “Frequency of head twitches III (number of mice)” value (from here on “Frequency of head twitches III”) (5-HT reuptake; 7.5 mg/kg intraperitoneal) of the same compound?
Answer: Its value is 0.

Question: What about the “Frequency of head twitches 0 (number of mice)” value (5-HT reuptake; 15 mg/kg intraperitoneal) of the same compound?
Answer: The value was 0.

Question: And the “Frequency of head twitches I (number of mice)” value (5-HT reuptake; 15 mg/kg intraperitoneal)?
Answer: The value was 0.

Question: What about the “Frequency of head twitches II (number of mice)” value (5-HT reuptake; 15 mg/kg intraperitoneal) of the same compound?
Answer: The value was 4.

Question: And the “Frequency of head twitches III” value (5-HT reuptake; 15 mg/kg intraperitoneal)?
Answer: Its value is 6.

Question: And the “Frequency of head twitches 0 (number of mice)” value (5-HT reuptake; 30 mg/kg intraperitoneal)?
Answer: Its value is 0.

Question: What about the “Frequency of head twitches I (number of mice)” value (5-HT reuptake; 30 mg/kg intraperitoneal) of the same compound?
Answer: Its value is 0.

Question: What about the “Frequency of head twitches II (number of mice)” value (5-HT reuptake; 30 mg/kg intraperitoneal) of the same compound?
Answer: Its value is 0.

Question: What about the “Frequency of head twitches III” value (5-HT reuptake; 30 mg/kg intraperitoneal) of the same compound?
Answer: The value was 10.

Question: And the “enhancement of the effect of 5-HTP (in words)” value (5-HT reuptake; 30, 15 and 7.5 mg/kg, significant dose-effect relationship)?
Answer: Its value is “significantly enhance the effect of 5-HTP”.

Question: And the inhibition at 10 µM (NA Transporter (hNAT))?
Answer: Its inhibition at 10 µM is 100%.

Question: And the “IT (sec), immobility time” value (male ICR mice; 20.0 mg/kg single intragastric administration, 1 h before test, 4 min observation, n=12)?
Answer: The value was 36.19 ± 25.78 s.

Question: What about the “Improvement (%)” value (male ICR mice; 20.0 mg/kg single oral administration, versus blank control IT) of the same compound?
Answer: Its value is 63.52%.

Question: And the “effect on immobility time in the tail suspension test (in words)” value (male ICR mice; 20 mg/kg, efficacy similar to Venlafaxine)?
Answer: The value was “significant reduction in the immobility time”.
